Test results published in ChEMBL document CHEMBL1149935, “17-hydroxywortmannin: A potent inhibitor of bone resorption and phosphatidylinositol-3-kinase” (Bioorg Med Chem Lett, 1995).

What was measured:
Gallus gallus = organism: Gallus gallus; assay: Compound was evaluated for inhibitory activity against bone resorption in avian osteoclast
[1] = Inhibition of bovine Phosphatidylinositol 3-kinase; set-up: species or system Bos taurus

Compound	IC50 (Gallus gallus) [nM]	IC50 [1] [nM]
COC(=O)c1coc2c(O)c3c(c(C)c12)C=C[C@]1(C)C(=O)CC[C@@H]31	> 1000	4600
COC[C@H]1OC(=O)c2coc3c2[C@@]1(C)C1=C(C3=O)[C@@H]2CCC(=O)[C@@]2(C)CC1	506	16.7
COC[C@H]1OC(=O)c2coc3c2[C@@]1(C)C1=CC[C@]2(C)C(=O)CC[C@H]2C1C3=O (stereo partly drawn)	–	54
COC[C@H]1OC(=O)c2coc3c2[C@@]1(C)C1=C(C3=O)[C@@H]2CC[C@H](O)[C@@]2(C)C[C@H]1OC(C)=O	10	0.5
COC[C@H]1OC(=O)c2c(C)oc3c2[C@@]1(C)C1=C(C3=O)[C@@H]2CCC(=O)[C@@]2(C)C[C@H]1OC(C)=O	> 1000	> 500
Cc1c2c(c(O)c3occ(C(=O)O)c13)C1CCC(=O)[C@@]1(C)C=C2 (stereo partly drawn)	> 1000	> 32000
COC[C@H]1OC(=O)c2coc3c2[C@@]1(C)C1=C(C3=O)C2CCC(O)[C@@]2(C)CC1 (stereo partly drawn)	103	–
NCCCC(O)(P(=O)(O)O)P(=O)(O)O [ALENDRONIC ACID]	100	> 50000
CC(O)(P(=O)(O)O)P(=O)(O)O [ETIDRONIC ACID]	100000	> 50000
COC[C@H]1OC(=O)c2coc3c2[C@@]1(C)C1=C(C3=O)[C@@H]2CCC(=O)[C@@]2(C)C[C@H]1OC(C)=O [WORTMANNIN]	98	4.2
